Broadly, the inhibition is the drop in the measured response relative to a control, in per cent.

Each structure is given as a SMILES string.

The values below come from patent US10610520B2, “Heterocyclic compound” (Takeda Pharmaceutical Company Limited, priority 2016, dated 2020).

This experiment concerns the target T1, His-hMAGL (recombinant polyhistidine tagged human MAGL protein) (Homo sapiens, UniProt Q99685).
T1 construct: made in house; host or cells: E. coli BL21(DE3)
T1 sequence (Q99685 1-303): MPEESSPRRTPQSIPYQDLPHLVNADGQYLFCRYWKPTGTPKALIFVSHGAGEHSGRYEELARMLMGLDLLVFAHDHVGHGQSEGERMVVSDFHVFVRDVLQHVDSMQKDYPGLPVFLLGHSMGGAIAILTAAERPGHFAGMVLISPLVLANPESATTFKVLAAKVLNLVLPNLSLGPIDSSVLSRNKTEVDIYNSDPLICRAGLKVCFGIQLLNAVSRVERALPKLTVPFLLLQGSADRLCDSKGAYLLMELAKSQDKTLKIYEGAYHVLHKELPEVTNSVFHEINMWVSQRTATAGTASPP
Nature of the experiment: Measurement of MAGL inhibitory activity (arachidonic acid production from 2-arachidonylglycerol, RapidFire-mass spectrometry). It counts as biochemical. The conditions noted are these: MAGL inhibitory rate, test compound 10 μM, 60 min preincubation, 2-arachidonylglycerol substrate. A digest of the protocol:
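Arachidonic acid formed was quantified by online solid-phase extraction and triple-quadrupole MS in negative SRM mode against a d8 internal standard. Reaction: recombinant His-hMAGL (7.5 ng/mL, pH 7.5 Tris buffer with Triton X-100 and BSA) plus 2-AG (5 μL of 150 μM stock) for 10 min at room temperature, quenched with 2% formic acid. Percent inhibition corrected for enzyme-free background.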

As for `Cc1cc(OC(F)(F)F)cc2sc(C(=O)N3CC4(COC(=O)N4)C3)c(Cl)c12` [Example 296, 2-((3-chloro-4-methyl-6-(trifluoromethoxy)-1-benzothiophen-2-yl)carbonyl)-7-oxa-2,5-diazaspiro[3.4]octan-6-one], the inhibition at 10 µM was determined as 101%.
Same read-out and setting: to `O=C1NC2(CO1)CN(C(=O)c1sc3c(Cl)ccc(OC(F)(F)F)c3c1Cl)C2` [Example 297, 2-((3,7-dichloro-4-(trifluoromethoxy)-1-benzothiophen-2-yl)carbonyl)-7-oxa-2,5-diazaspiro[3.4]octan-6-one] belongs 100%.
Turning to `O=C1NC2(CO1)CN(C(=O)c1sc3cc(OC(F)(F)F)c(Cl)cc3c1Cl)C2` [Example 298, 2-((3,5-dichloro-6-(trifluoromethoxy)-1-benzothiophen-2-yl)carbonyl)-7-oxa-2,5-diazaspiro[3.4]octan-6-one], the inhibition at 10 µM turned out to be 100%.
On the same count and under the same terms, to `O=C1NC2(CO1)CN(C(=O)c1sc3ccc(OC(F)(F)F)cc3c1C(F)F)C2` [Example 300, 2-((3-(difluoromethyl)-5-(trifluoromethoxy)-1-benzothiophen-2-yl)carbonyl)-7-oxa-2,5-diazaspiro[3.4]octan-6-one] belongs 101%; to `O=C1NC2(CO1)CN(C(=O)c1sc3c(F)ccc(OC(F)(F)F)c3c1Cl)C2` [Example 301, 2-((3-chloro-7-fluoro-4-(trifluoromethoxy)-1-benzothiophen-2-yl)carbonyl)-7-oxa-2,5-diazaspiro[3.4]octan-6-one], 100%.
Regarding `O=C1NC2(CO1)CN(C(=O)c1sc3c(C(F)F)c(OC(F)(F)F)ccc3c1Cl)C2` [Example 302, 2-((3-chloro-7-(difluoromethyl)-6-(trifluoromethoxy)-1-benzothiophen-2-yl)carbonyl)-7-oxa-2,5-diazaspiro[3.4]octan-6-one], the inhibition at 10 µM worked out at 101%.
In the case of `O=C1NC2(CO1)CN(C(=O)c1sc3c(Cl)c(OC(F)F)cc(F)c3c1Cl)C2` [Example 303, 2-((3,7-dichloro-6-(difluoromethoxy)-4-fluoro-1-benzothiophen-2-yl)carbonyl)-7-oxa-2,5-diazaspiro[3.4]octan-6-one], the inhibition at 10 µM was determined as 100%.
Same read-out and setting: next, `Cc1c(OC(F)F)cc(F)c2c(Cl)c(C(=O)N3CC4(COC(=O)N4)C3)sc12` [Example 304, 2-((3-chloro-6-(difluoromethoxy)-4-fluoro-7-methyl-1-benzothiophen-2-yl)carbonyl)-7-oxa-2,5-diazaspiro[3.4]octan-6-one]: 100%; `O=C1NC2(CO1)CN(C(=O)c1sc3cc(C(F)(F)F)cc(OC(F)F)c3c1Cl)C2` [Example 305, 2-((3-chloro-4-(difluoromethoxy)-6-(trifluoromethyl)-1-benzothiophen-2-yl)carbonyl)-7-oxa-2,5-diazaspiro[3.4]octan-6-one]: 100%.
On the same count and under the same terms, next, `O=C1NC2(CO1)CN(C(=O)c1sc3cc(OC(F)(F)F)c(C(F)F)cc3c1Cl)C2` [Example 306, 2-((3-chloro-5-(difluoromethyl)-6-(trifluoromethoxy)-1-benzothiophen-2-yl)carbonyl)-7-oxa-2,5-diazaspiro[3.4]octan-6-one]: 100%.
On the same count and under the same terms, to `O=C1NC2(CO1)CN(C(=O)c1sc3cc(Br)ccc3c1Cl)C2` [Example 307, 2-((6-bromo-3-chloro-1-benzothiophen-2-yl)carbonyl)-7-oxa-2,5-diazaspiro[3.4]octan-6-one] belongs 100%; to `O=C1NC2(CO1)CN(C(=O)c1sc3cc(Cl)cc(Cl)c3c1Cl)C2` [Example 308, 2-((3,4,6-trichloro-1-benzothiophen-2-yl)carbonyl)-7-oxa-2,5-diazaspiro[3.4]octan-6-one], 101%; to `O=C1NC2(CO1)CN(C(=O)c1sc3cc(C4=CCC(F)(F)CC4)cc(F)c3c1Cl)C2` [Example 309, 2-((3-chloro-6-(4,4-difluorocyclohex-1-en-1-yl)-4-fluoro-1-benzothiophen-2-yl)carbonyl)-7-oxa-2,5-diazaspiro[3.4]octan-6-one], 101%.
Regarding `O=C1NC2(CO1)CN(C(=O)c1sc3cc(C4=CCC(F)(F)CC4)cc(F)c3c1C1=CCC(F)(F)CC1)C2` [Example 310, 2-((3,6-bis(4,4-difluorocyclohex-1-en-1-yl)-4-fluoro-1-benzothiophen-2-yl)carbonyl)-7-oxa-2,5-diazaspiro[3.4]octan-6-one], the inhibition at 10 µM was determined as 100%.
The same measure, in the same setting: to `O=C1NC2(CO1)CN(C(=O)c1sc3cc(C4CC4)cc(F)c3c1Cl)C2` [Example 311, 2-((3-chloro-6-cyclopropyl-4-fluoro-1-benzothiophen-2-yl)carbonyl)-7-oxa-2,5-diazaspiro[3.4]octan-6-one] belongs 101%; to `O=C1NC2(CO1)CN(C(=O)c1sc3cc(C4CC4)cc(F)c3c1C1CC1)C2` [Example 312, 2-((3,6-dichloropropyl-4-fluoro-1-benzothiophen-2-yl)carbonyl)-7-oxa-2,5-diazaspiro[3.4]octan-6-one], 101%.
On to `O=C1NC2(CO1)CN(C(=O)c1sc3c(F)ccc(OC(F)F)c3c1Cl)C2` [Example 313, 2-((3-chloro-4-(difluoromethoxy)-7-fluoro-1-benzothiophen-2-yl)carbonyl)-7-oxa-2,5-diazaspiro[3.4]octan-6-one], for which the inhibition at 10 µM is 101%.
On to `O=C1NC2(CO1)CN(C(=O)c1sc3cc(F)cc(OC(F)(F)F)c3c1Cl)C2` [Example 314, 2-((3-chloro-6-fluoro-4-(trifluoromethoxy)-1-benzothiophen-2-yl)caarbonyl)-7-oxa-2,5-diazaspiro[3.4]octan-6-one], for which the inhibition at 10 µM stood at 101%.
The same measure, in the same setting: next, `O=C1NC2(CO1)CN(C(=O)c1sc3c(F)c(OC(F)(F)F)cc(F)c3c1Cl)C2` [Example 315, 2-((3-chloro-4,7-difluoro-6-(trifluoromethoxy)-1-benzothiophen-2-yl)carbonyl)-7-oxa-2,5-diazaspiro[3.4]octan-6-one]: 100%; `O=C1NC2(CO1)CN(C(=O)c1sc3cc(OC(F)(F)F)cc(C(F)F)c3c1Cl)C2` [Example 316, 2-((3-chloro-4-(difluoromethyl)-6-(trifluoromethoxy)-1-benzothiophen-2-yl)carbonyl)-7-oxa-2,5-diazaspiro[3.4]octan-6-one]: 100%; `O=C1CCC2(CCN(C(=O)N3CC(COc4ccc(C(F)(F)F)cc4F)C3)C2)N1` (stereo not drawn) [Example 319, 7-((3-((2-fluoro-4-(trifluoromethyl)phenoxy)methyl)azetidin-1-yl)carbonyl)-1,7-diazaspiro[4.4]nonan-2-one]: 96%.
On the same count and under the same terms, next, `O=C1CCC2(CCN(C(=O)N3CC(COc4ccc5c(c4)CCCC5)C3)C2)N1` (stereo not drawn) [Example 320, 7-((3-((5,6,7,8-tetrahydronaphthalen-2-yloxy)methyl)azetidin-1-yl)carbonyl)-1,7-diazaspiro[4.4]nonan-2-one]: 94%; `O=C1NC2(CCN(C(=O)c3sc4cc(OC(F)(F)F)ccc4c3Cl)C2)CO1` (stereo not drawn) [Example 321, 7-((3-chloro-6-(trifluoromethoxy)-1-benzothiophen-2-yl)carbonyl)-3-oxa-1,7-diazaspiro[4.4]nonan-2-one]: 100%; `O=C1NC2(CCN(C(=O)N3CCC(COc4ccc(F)cc4Cl)CC3)C2)CO1` (stereo not drawn) [Example 322, 7-((4-((2-chloro-4-fluorophenoxy)methyl)piperidin-1-yl)carbonyl)-3-oxa-1,7-diazaspiro[4.4]nonan-2-one]: 100%.
`O=C1NC2(CCN(C(=O)c3sc4cc(OC(F)(F)F)ccc4c3Cl)C2)CO1` (stereo not drawn) [Example 323, 7-((3-chloro-6-(trifluoromethoxy)-1-benzothiophen-2-yl)carbonyl)-3-oxa-1,7-diazaspiro[4.4]nonan-2-one]: the “% inhibition (10 μM)” value came to 101%.
The same measure, in the same setting: to `O=C1NC2(CCN(C(=O)c3sc4cc(OC(F)(F)F)ccc4c3Cl)C2)CO1` (stereo not drawn) [Example 324, 7-((3-chloro-6-(trifluoromethoxy)-1-benzothiophen-2-yl)carbonyl)-3-oxa-1,7-diazaspiro[4.4]nonan-2-one] belongs 94%.
With `O=C1NC2(CCN(C(=O)c3sc4cc(Cl)cc(Cl)c4c3Cl)C2)CO1` (stereo not drawn) [Example 325, 7-((3,4,6-trichloro-1-benzothiophen-2-yl)carbonyl)-3-oxa-1,7-diazaspiro[4.4]nonan-2-one], the inhibition at 10 µM turned out to be 80%.
Take `O=C1NC2(CCN(C(=O)c3sc4cc(Cl)cc(Cl)c4c3Cl)C2)CO1` (stereo not drawn) [Example 327, 7-((3,4,6-trichloro-1-benzothiophen-2-yl)carbonyl)-3-oxa-1,7-diazaspiro[4.4]nonan-2-one]: the “% inhibition (10 μM)” value is recorded as 99%.
In the case of `Cc1cc(F)c(F)c2sc(C(=O)N3CCC4(COC(=O)N4)C3)c(Cl)c12` (stereo not drawn) [Example 328, 7-((3-chloro-6,7-difluoro-4-methyl-1-benzothiophen-2-yl)carbonyl)-3-oxa-1,7-diazaspiro[4.4]nonan-2-one], the inhibition at 10 µM is 99%.
Still for that read-out and setting: next, `Cc1c(OC(F)(F)F)ccc2c(Cl)c(C(=O)N3CCC4(COC(=O)N4)C3)sc12` (stereo not drawn) [Example 329, 7-((3-chloro-7-methyl-6-(trifluoromethoxy)-1-benzothiophen-2-yl)carbonyl)-3-oxa-1,7-diazaspiro[4.4]nonan-2-one]: 100%.
